Reference: PMC5217330, “Impact of colistin plasma levels on the clinical outcome of patients with infections caused by extremely drug-resistant Pseudomonas aeruginosa” (BMC Infectious Diseases, 2017)
Like-named read-outs stand apart in the source and are kept apart here. Where a SMILES comes first, the peptide text is derived from it.

What was measured:
[1] = Colistin plasma concentration at steady state in patients treated with intravenous CMS (HPLC); type: in vivo, human
Description: CMS for injection was used and dosed in millions of IU throughout the study. The drug was administered intravenously in 100 mL of normal saline over 30 min in the commercially available colistimethate formulation for injection (GES GenéricosEspañoles®), with each vial containing 80 mg CMS (equivalent to 1 million IU of CMS and about 30 mg of colistin base activity). As the policy of our hospital, CMS is reserved for the treatment of infections due to bacteria that are resistant to carbapenems and other antipseudomonal antibiotics except colistin and, eventually, aminoglycosides. Dose selection was at the discretion of the responsible clinicians. CMS doses ranged from 1 to 3 million IU every 8 h (3–9 millions IU daily). The following dose adjustments were made according to the package insert’s recommendations in patients with impaired renal function: GFR ≥ 76 mL/min/1.73 m^2, 4–6 million IU daily in three doses; GFR 40 to 75 mL/min/1.73 m^2, 2–3 million IU daily in 2 doses; GFR 25–40 mL/min/1.73 m^2, 1.5–2 million IU daily divided into 1 or 2 doses; and GFR < 25 mL/min/1.73 m^2, 0.6–1 million IU daily every 36 h. No loading-dose was administered to any included patient.
Measurement of the plasma colistin concentration was performed at the fourth day of treatment, when was assumed that the colistin concentrations had reached the steady state. The colistin plasma trough concentrations (Cmin) were measured just before the administration of CMS. The maximum plasma concentrations (Cmax) were obtained 30 min after the end of the CMS infusion (1 h after the start of infusion). A specialized nurse performed extraction of blood. Samples were immediately placed in a portable refrigerator (4 °C) to be processed in a refrigerated centrifuge (4 °C) at the laboratory. Colistin concentrations in the plasma were determined using a validated high-performance liquid chromatography (HPLC) method as reportedby Li et al., with minor modifications as described previously by our group.
Following Couet et al., Cmin was chosen because it is more convenient from a practical view point and because due to the colistin pharmacokinetic behavior, there can be CMS hydrolysis to colistinafter sample extraction resulting in an overestimation of the real in vivo colistin plasma concentration. This phenomenon can be minimized when CMS plasma concentrations are lower what occurs at the end of the dosing interval (when the Cmin is measured). Throughout the present paper, we have used the term “average colistin concentration at steady state (Css)” to refer to the Cmin.

[2] = tested on: colistin-susceptible XDR P. aeruginosa; assay: Clinical outcome (clinical cure, 30-day mortality) of patients with XDR P. aeruginosa infections treated with intravenous CMS; type: in vivo, human
Description: A prospective observational cohort study was conducted between January 2009 and January 2013 at a 450-bed teaching hospital in Barcelona, Spain. All patients who had microbiologically documented infections due to colistin-susceptible XDR-P.aeruginosa and were administered CMS for at least 72 h, were included in the study. Only microbiologically documented and clinically defined infections caused by colistin-susceptible XDR P. aeruginosa treated with colistin were considered. Acute bronchitis and tracheitis were excluded from the analysis due to the difficulty in differentiating true infection from colonization in patients with chronic obstructive pulmonary disease (COPD).
The primary end point was clinical cure, and the secondary 30-day all-cause mortality.
Clinical cure and failure were defined as resolution and persistence/worsening, respectively, of symptoms and signs of infection.
Thirty-day mortality was defined as death occurring within 30 days of beginning CMS treatment.
Clinical cure was defined as having resolved clinical signs and symptoms and/or no need for additional antibiotic therapy. Clinical failure was defined as an inadequate response to antibiotic therapy, with worsening, new/recurrent signs and symptoms or death.

[3] = in vivo
Description: The serum creatinine level and estimated glomerular filtration rate (GFR) were recorded at baseline, at the moment of colistin plasma extraction (day 4), on day 7 and at the EOT. […] The RIFLE criteria (Table 1) estimated with exclusion of the urinary output criterion, were used for the detection and stratification of acute kidney injury (AKI) [22]. AKI during CMS treatment was defined as a 1.5-fold or more increase in serum creatinine and/or a decrease in the GFR of 25% or more. These criteria needed to be fulfilled for at least 2 consecutive measurements 24 h apart during CMS treatment.

CC[C@H](C)CCCCC(=O)N[C@@H](CCN)C(=O)N[C@H](C(=O)N[C@@H](CCN)C(=O)N[C@H]1CCNC(=O)[C@H]([C@@H](C)O)NC(=O)[C@H](CCN)NC(=O)[C@H](CCN)NC(=O)[C@H](CC(C)C)NC(=O)[C@@H](CC(C)C)NC(=O)[C@H](CCN)NC1=O)[C@@H](C)O [colistin] (HELM PEPTIDE1{[CC[C@H](C)CCCCC(=O)[*:2]].[Dab].T.[Dab].[Dab].[Dab].[dL].L.[Dab].[Dab].T}$PEPTIDE1,PEPTIDE1,5:R3-11:R2$$$V2.0)
Css/MIC ([1]; all included patients n = 91, mean ± SD, SD): 3.43 ± 2.91
Cmax ([1]; human, iv, day 4, 30 min after end of 30-min CMS infusion, plasma, HPLC, mean ± SD, SD, read-out: Cmax (maximum plasma concentration)): 1660 ± 1400 ng/mL
level at 96 h ([1]; human, plasma, iv, day 4, just before administration of CMS, plasma, HPLC, mean ± SD, SD, read-out: Cmin (colistin plasma trough concentration)): 1710 ± 1420 ng/mL
level at 96 h ([1]; human, plasma, iv, patients who achieved clinical cure, mean (SD), abstract, SD, read-out: Css): 1490 ng/mL
level at 96 h ([1]; human, plasma, iv, patients who did not achieve clinical cure, mean (SD), p = 0.01, abstract, SD, read-out: Css): 2420 ng/mL
level at 96 h ([1]; human, plasma, iv, patients who died n = 28, day 4 trough, plasma, HPLC, mean ± SD, P = 0.011 vs survived, read-out: Css): 2100 ng/mL
level at 96 h ([1]; human, plasma, iv, patients who survived n = 63, day 4 trough, plasma, HPLC, mean ± SD, read-out: Css): 1400 ng/mL
Css/MIC ([1]; patients who died n = 28, mean ± SD, P = 0.048 vs survived, SD): 4.2 ± 2.7
Css > 1.25 (mg/L), patients ([1]; patients who survived n = 63): 28 (44.4) n (%)
Css/MIC ([1]; patients who survived n = 63, mean ± SD, SD): 3.1 ± 3
Css/MIC ([1]; patients with clinical cure n = 72, mean ± SD, SD): 3.13 ± 2.9
Css/MIC ([1]; patients with clinical failure n = 19, mean ± SD, P = 0.03 vs cure, SD): 4.61 ± 2.86

colistimethate sodium [CMS]
infection-related mortality rate ([2]; 13 patients died due to P. aeruginosa infection, n = 91): 14.3%
30-day all-cause mortality rate ([2]; 28 of 91 patients, i.v. CMS): 30.9%
AKI RIFLE F at the EOT, patients [3]: 11%
AKI RIFLE F on day 7 of treatment, patients [3]: 2.2%
AKI RIFLE I at the EOT, patients [3]: 29.7%
AKI RIFLE I on day 7 of treatment, patients [3]: 9.9%
AKI RIFLE R at the EOT, patients [3]: 13.2%
AKI RIFLE R on day 7 of treatment, patients [3]: 20.9%
CMS dose modified because of AKI, patients [3]: 17.5%
GFR returned to baseline at the end of follow-up, patients [3]: 35.1%
Impairment of renal function during CMS treatment at the EOT, patients [3]: 53.8%
Impairment of renal function during CMS treatment on day 7, patients [3]: 33%
Patients with AKI at day 7, F (Failure) [3]: 2 (2.2) n (%)
Patients with AKI at day 7, I (Injury) [3]: 9 (9.9) n (%)
Patients with AKI at day 7, R (Risk) [3]: 19 (20.9) n (%)
Patients with AKI at the EOT, F (Failure) [3]: 10 (11) n (%)
Patients with AKI at the EOT, I (Injury) [3]: 27 (27.7) n (%)
Patients with AKI at the EOT, R (Risk) [3]: 12 (13.2) n (%)
persisted with some grade of impairment of renal function at the end of follow-up, patients [3]: 2.1%
